Assay results published in patent publication US20240287429A1, “MEDICINAL AGENT EFFECT PREDICTION SYSTEM” (Tohoku Institute of Technology, priority 2021, published 2024).

Assays:
[1] = system: peripheral nerves; details: stated as known; not the applicant's own test; cited from earlier work
[2] = system: neurites growing from nerve cells (rat DRG cells); assay: assessment by medicinal agent effect prediction system: microscope image of neurites cultured in the microfluidic device, applied to learned model M1; type: cell-based; details: image of FIG. 10 applied to learned model M1; result shown in FIG. 11
Source text: FIG. 7A to FIG. 7D are observation images obtained by culturing nerve cells 41 in the microfluidic devices 30 using culture solutions respectively containing different known substances and observing, with a microscope, neurites 42 located in the second culture spaces 37. It should be noted that rat DRG cells are herein used as nerve cells 41, but various cells such as mouse DRG cells, human ES cells, or human iPS cells can be used.
Then, neurites 42 growing from the nerve cells 41 and located in the second culture space 37 were observed by the microscope 50 to obtain an observation image.
Image data based on the observation image was input as input data for assessment i42t to the system 10 through the data input receiving unit 11. In the system 10, the assessment unit 15 applied the input data for assessment i42t to the learned model M1. That is, features based on the input data for assessment i42t were applied to the input layer of the learned model M1. As a result, the result of assessment shown in FIG. 11 was output from the display output unit 17.
The percentage of correct answers is further improved by increasing the number of samples of teaching data and the number of times of learning.

Row | Compound | impairment of peripheral nerves the substance is known to cause [1] | result of assessment (impaired nerve site predicted by the system) [2]
1 | OC[C@H]1O[C@@](CO)(O[C@H]2O[C@H](CO)[C@@H](O)[C@H](O)[C@H]2O)[C@@H](O)[C@@H]1O [Sucrose] | not to be toxic to peripheral nerves | 
2 | O=C1[O][Pt]2([NH][C@@H]3CCCC[C@H]3[NH]2)[O]C1=O [Oxaliplatin] | neuronopathy | 
3 | CC[C@]1(O)C[C@H]2CN(CCc3c([nH]c4ccccc34)[C@@](C(=O)OC)(c3cc4c(cc3OC)N(C=O)[C@H]3[C@@](O)(C(=O)OC)[C@H](OC(C)=O)[C@]5(CC)C=CCN6CC[C@]43[C@@H]65)C2)C1 [Vincristine] | axonopathy | 
4 | CC(=O)O[C@H]1C(=O)[C@@]2(C)[C@H]([C@H](OC(=O)c3ccccc3)[C@]3(O)C[C@H](OC(=O)[C@H](O)[C@@H](NC(=O)c4ccccc4)c4ccccc4)C(C)=C1C3(C)C)[C@]1(OC(C)=O)CO[C@@H]1C[C@@H]2O [Paclitaxel] |  | high possibility of causing axonopathy
